“Also recorded” adds a separate entry of the source. Read-outs that look alike come from different tables or passages of the source.
Legend:
CcO from R. sphaeroides = system: CcO from R. sphaeroides; design: method as in PMID 24073649; details: cited from earlier work
[1] = target: T1, cytochrome c oxidase (CcO) purified from bovine heart (Bos taurus, UniProt P00396+P68530); test: Cytochrome oxidase activity assay (oxygen uptake, Clark-type electrode; ascorbate + TMPD + cytochrome c); format: biochemical; details: for Inhibition of CcO Oxidase Activity, DM Influence: effect of dodecyl-maltoside on the inhibition; for slope tangent of Ki(app) vs [DM], ratio Ki:Kc: ratio of the affinities of hormone and DM; for Kd: X-axis intercept
T1 construct: Cytochrome oxidase was isolated from bovine heart mitochondria; from tissue; host or cells: bovine heart mitochondria
Description: Cytochrome oxidase was isolated from bovine heart mitochondria using the modified method of Fowler et al. as described previously by Vygodina et al..
Cytochrome oxidase activity assay. Oxygen uptake rates were measured with a covered Clark-type electrode by an Oxytherm instrument (Hansatech, UK) in a thermostatted cell at 25 °C with permanent stirring. The assays were performed in a basic medium containing 50 mM Hepes, 50 mM Tris, pH 7.5 and 0.1 mM EDTA. The medium was also supplemented with indicated concentrations of DM which are given throughout the text in mM (0.05% ≈ 1.0 mM DM). 5 mM ascorbate, 0.1 mM TMPD and 10 µM cytochrome c were used as the oxidation substrate. Other details are indicated in the legends to figures.
In order to determine Ki(app), the titration curves in Figure 2B were approximated by Equation (2) that connects normalized activity, v, with testosterone concentration, [I].

[2] = target: T2, cytochrome c oxidase (CcO) purified from bovine heart, electron transfer from heme a to heme a3 (Bos taurus, UniProt P00396+P68530); test: Stopped-flow kinetics of CcO (heme a3) reduction by dithionite in the presence of RuAm; format: biochemical; details: for rate constant of heme a3 reduction, rapid phase: control 105.3; for rate constant of heme a3 reduction, slow phase: control 6.15
T2 construct: Cytochrome oxidase was isolated from bovine heart mitochondria; from tissue; host or cells: bovine heart mitochondria
Description: The kinetics of CcO reduction by dithionite in the presence of ruthenium hexammine (RuAm) was studied in an Applied Photophysics SX-20 stopped-flow spectrophotometer (UK) operated in a diode array mode, using a 20 µL cell with 1 cm optical pathway. The spectra in the 280–720 nm range were collected with a minimal interval of 1 ms. The assay medium contained 100 mM Hepes, 100 mM Tris, 50 mM KCl, 100 µM EGTA, catalase (2 µL/5 mL of the solution, indicated activity 23,000 units/mg protein), 0.05% DM, pH 8.0. Aerobic buffer with 6 µM CcO and 0.4 mM or 1 mM estradiol was rapidly mixed with the equal volume of the same buffer containing 40 mM sodium dithionite and 10 mM RuAm.
Procession of the stopped-flow data was performed with ProKineticist software provided with the Applied Photophysics SX-20 instrument, as well as by using Origin 7 and Origin 9 Microcal software.
We investigated effect of estradiol on the kinetics of electron transfer from heme a to heme a3. To this end, the kinetics of the hemes’ reduction by dithionite in the presence of RuAm was studied. In the experiment shown in Figure 4, 3 µM CcO was mixed rapidly with 20 mM dithionite and 5 mM RuAm and the reaction time course was followed by taking the spectra each ms in the 280–720 nm range in a rapid mixing diode array spectrophotometer.

[3] = target: T1, cytochrome c oxidase (CcO) purified from bovine heart; test: Peroxidase activity of CcO (o-dianisidine peroxidation by H2O2); format: biochemical; details: for Inhibition of CcO Peroxidase Activity: 0.2 mM o-dianisidine, 4 mM H2O2, 0.6 µM CcO
Description: Peroxidase activity of CcO was assayed as described by Vygodina and Konstantinov by following spectrophotometrically peroxidation of 0.2 mM o-dianisidine at 432 nm minus 580 nm in a dual-wavelength SLM Aminco DW-2000 spectrophotometer (USA). The reaction mixture contained 0.6 µM CcO in the aerobic basic medium supplemented with different concentrations of DM. No o-dianisidine oxidase activity was observed and the peroxidase reaction was initiated by addition of 4 mM H2O2.

[4] = target: T3, cytochrome c oxidase (CcO) purified from bovine heart, heme a3 (Bos taurus, UniProt P00396+P68530); test: Absorption spectra of CcO (hormone-induced difference spectra); format: binding; details: for Spectral Response Induced in Oxidized CcO: air-oxidized CcO; for Magnitude ε of the spectral shift induced in oxidized CcO: estradiol: 1 mM hormone, pH 8.0, 437 minus 415 nm
T3 construct: Cytochrome oxidase was isolated from bovine heart mitochondria; from tissue; host or cells: bovine heart mitochondria
Description: Absorption spectra of CcO were recorded with a Cary 300 Bio spectrophotometer (Varian, Palo Alto, CA, USA) in semi-micro cuvettes with blackened walls and 10 mm light pathway (Hellma, Müllheim, Germany), in the basic medium at pH 8.0 supplemented with indicated different additions. The kinetics of spectral changes was monitored in a dual-wavelength mode in a SLM Aminco DW-2000 spectrophotometer.

R. sphaeroides CcO = R. sphaeroides CcO (Cereibacter sphaeroides, UniProt P33517+Q03736); test: Preliminary experiments on inhibition of R. sphaeroides CcO; format: biochemical, Rhodobacter sphaeroides
human endothelial cells = system: human endothelial cells; design: method as in PMID 17267145; details: read-out: IC50% for inhibition of cell growth; cited from earlier work
[5] = target: T1, cytochrome c oxidase (CcO) purified from bovine heart; design: method as in the paper is submitted for publication; details: from study on inhibition of CcO by Triton X-100; ref the paper is submitted for publication; read-out: affinity between DM and CcO, Kc; cited from earlier work
[6] = true Ki extrapolated to zero dodecyl-maltoside (DM) from plot of Ki(app) vs [DM], 25 °C, pH 7.5, read-out: Inhibition of CcO Oxidase Activity, Ki (DM→0)

R. sphaeroides CcO, sequence (P33517 whole entry): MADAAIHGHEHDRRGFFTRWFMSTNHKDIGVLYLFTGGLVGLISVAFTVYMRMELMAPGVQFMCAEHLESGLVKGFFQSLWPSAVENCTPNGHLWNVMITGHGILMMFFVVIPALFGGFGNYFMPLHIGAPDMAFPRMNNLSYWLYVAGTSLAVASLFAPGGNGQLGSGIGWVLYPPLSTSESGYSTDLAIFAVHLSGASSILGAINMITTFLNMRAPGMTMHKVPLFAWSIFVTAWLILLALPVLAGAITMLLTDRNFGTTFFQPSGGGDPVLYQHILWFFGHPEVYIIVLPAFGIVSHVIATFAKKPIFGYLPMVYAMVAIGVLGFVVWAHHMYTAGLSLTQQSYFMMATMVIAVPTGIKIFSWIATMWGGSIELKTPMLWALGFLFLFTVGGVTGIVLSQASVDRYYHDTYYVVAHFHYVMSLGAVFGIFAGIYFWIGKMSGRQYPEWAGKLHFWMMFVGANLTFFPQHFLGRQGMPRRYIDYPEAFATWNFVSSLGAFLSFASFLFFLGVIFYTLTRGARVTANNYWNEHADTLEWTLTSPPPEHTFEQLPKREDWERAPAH
R. sphaeroides CcO, sequence (Q03736 26-290 limits assumed): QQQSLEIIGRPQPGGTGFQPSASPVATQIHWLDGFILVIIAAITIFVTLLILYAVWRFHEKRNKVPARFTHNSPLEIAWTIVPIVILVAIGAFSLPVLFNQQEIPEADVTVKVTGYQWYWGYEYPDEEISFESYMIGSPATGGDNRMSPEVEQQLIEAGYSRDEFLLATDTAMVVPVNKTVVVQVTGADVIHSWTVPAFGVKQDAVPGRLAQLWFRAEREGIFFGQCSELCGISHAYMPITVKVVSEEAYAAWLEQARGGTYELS

CC1=C(/C=C/C(C)=C/C=C/C(C)=C/C(=O)O)C(C)(C)CCC1 [retinoic acid]
effect on the activity of CcO from R. sphaeroides (CcO from R. sphaeroides): strongly inhibited

CC(C)CCC[C@@H](C)[C@H]1CC[C@H]2[C@@H]3CC=C4C[C@@H](O)CC[C@]4(C)[C@H]3CC[C@]12C [cholesterol]
inhibition of the oxidase activity of the bovine heart enzyme ([1]; unpublished data of the authors): does not inhibit

C[C@]12CC[C@@H]3c4ccc(OC(=O)c5ccccc5)cc4CC[C@H]3[C@@H]1CC[C@@H]2O [estradiol-3-benzoate]
effect on the activity of CcO from R. sphaeroides (CcO from R. sphaeroides): did not reveal inhibition
rate constant of heme a3 reduction, rapid phase ([2]; 0.2 mM estradiol, 3 µM CcO, 20 mM dithionite, 5 mM RuAm): 67.75 s⁻¹
rate constant of heme a3 reduction, slow phase ([2]; 0.2 mM estradiol): 5.3 s⁻¹
decrease of the rate constants of both phases of heme a3 reduction ([2]; 0.5 mM estradiol): ca. 60%
rate constant of heme a3 reduction, slow phase ([2]; 0.5 mM estradiol): 2.5 s⁻¹
rate constant of heme a3 reduction, rapid phase ([2]; 0.5 mM estradiol): 39.6 s⁻¹
Inhibition of CcO Peroxidase Activity [3]: no
Inhibition of CcO Peroxidase Activity ([3]; listed as estradiol): do not inhibit
time for the spectral shift to reach completion after hormone addition ([4]; 1 mM estradiol, 13 mM DM, oxidized CcO): 3 to 5 min
magnitude of spectral shift relative to the effect induced by cyanide ([4]; 1 mM estradiol, cyanide effect from ref 20): ca. 1/5
Spectral Response Induced in Oxidized CcO [4]: red shift of a3^3+
Magnitude ε of the spectral shift induced in oxidized CcO ([4]; 13 mM DM): 10 mM^−1⋅cm^−1
effect on the absorption spectrum of the reduced CcO ([4]; reduced CcO): No effect
inhibition of R. sphaeroides CcO (R. sphaeroides CcO): inhibition
inhibition of oxygen consumption (oxidase activity) ([1]; 0.5 mM estradiol, 1 mM DM): approximately by half; also recorded: does inhibit
inhibition of CcO oxidase activity (fold) ([1]; 2 mM estradiol, 1 mM DM): ~4 fold
inhibition of CcO oxidase activity ([1]; 2 mM estradiol, 20 mM DM): only a slight inhibition
Inhibition of CcO Oxidase Activity, DM Influence [1]: competes 1:1
slope tangent of Ki(app) vs [DM], ratio Ki:Kc [1]: 0.25
Ki [1, 6]: 370 µM

CC(=O)[C@H]1CC[C@H]2[C@@H]3CCC4=CC(=O)CC[C@]4(C)[C@H]3CC[C@]12C [Progesterone]
Inhibition of CcO Peroxidase Activity [3]: no
Inhibition of CcO Oxidase Activity, DM Influence [1]: competes 1:1
Ki [1, 6]: 120 µM

C=C1CC[C@H](O)C/C1=C/C=C1\CCC[C@]2(C)[C@@H]([C@H](C)CCCC(C)C)CC[C@@H]12 [Cholecalciferol (vitamine D3), Cholecalciferol]
Inhibition of CcO Peroxidase Activity [3]: yes
Ki ([3]; read-out: Ki for inhibition of CcO peroxidase activity): ~200 µM
Spectral Response Induced in Oxidized CcO [4]: red shift of a3^3+
Magnitude ε of the spectral shift induced in oxidized CcO ([4]; 13 mM DM): 25 mM^−1⋅cm^−1
Inhibition of CcO Oxidase Activity, DM Influence [1]: competes 1:1
Ki [1, 6]: 9 µM

C[C@]12CC[C@H]3[C@@H](CCC4=CC(O)CC[C@@H]43)[C@@H]1CCC2O (stereo partly shown) [norandrostenediol]
IC50 (human endothelial cells): 6000 µM

C[C@]12CC[C@H]3[C@@H](CCC4=CC(=O)CC[C@@]43C)[C@@H]1CC[C@@H]2O [Testosterone]
IC50 (human endothelial cells): 100 µM
effect on the activity of CcO from R. sphaeroides (CcO from R. sphaeroides): did not reveal inhibition
Inhibition of CcO Peroxidase Activity [3]: no
Inhibition of CcO Peroxidase Activity ([3]; listed as testosterone): do not inhibit
Spectral Response Induced in Oxidized CcO [4]: no
Ki [1]: 80 µM
maximal level of inhibition by excess testosterone ([1]; 1 mM DM): ca. 25%
inhibition of CcO oxidase activity ([1]; 4 mM testosterone, 1 mM DM): inhibits the activity but weakly
inhibition of CcO oxidase activity ([1]; 4 mM testosterone, 20 mM DM): strong inhibition; also recorded: does inhibit
Inhibition of CcO Oxidase Activity, DM Influence [1]: competes 1:1; increases maximal level of inhibition
inhibition of CcO oxidase activity directly observed (fold) ([1]; high concentrations of both testosterone and DM (Figure 2A, trace 1: 4 mM testosterone, 20 mM DM)): ≤ 3 fold
slope tangent of Ki(app) vs [DM], ratio Ki:Kc [1]: 0.05
inhibition at 100 µM ([1]; read-out: inhibition of bovine oxidase): 13%

C[C@]12CC[C@H](O)CC1=CC[C@@H]1[C@@H]2CC[C@]2(C)C(=O)CC[C@@H]12 [Dehydroepiandrosterone (DHEA), Dehydroepiandrosterone]
Inhibition of CcO Peroxidase Activity [3]: no
Ki [1]: 110 µM
Inhibition of CcO Oxidase Activity, DM Influence [1]: competes 1:1

C[C@]12CC[C@H]3[C@@H](CCC4=CC(=O)CC[C@@H]43)[C@@H]1CC[C@@H]2O [nandrolone]
IC50 (human endothelial cells): 9 µM

C[C@]12CC[C@H]3[C@@H](CCC4=CC(=O)CC[C@@H]43)[C@@H]1CCC2=O [norandrostenedione]
IC50 (human endothelial cells): 500 µM

N[C@@H](Cc1cc(I)c(Oc2ccc(O)c(I)c2)c(I)c1)C(=O)O [thyroid hormone T3]
effect on the activity of CcO from R. sphaeroides (CcO from R. sphaeroides): inhibited the enzyme; also recorded: strongly inhibited

C[C@]12CCC(=O)C=C1CC[C@@H]1[C@@H]2CC[C@]2(C)C(=O)CC[C@@H]12 [androstenedione]
IC50 (human endothelial cells): 375 µM

CCCCCCCCCCCCO[C@@H]1O[C@H](CO)[C@@H](O[C@H]2O[C@H](CO)[C@@H](O)[C@H](O)[C@H]2O)[C@H](O)[C@H]1O [DM, dodecyl-maltoside]
Kd [5]: 1200 µM
Kd ([1]; from plot of Ki(app) for estradiol vs [DM], read-out: dissociation constant for DM in the absence of estradiol, Kc): 1470 µM
Kd ([1]; from plot of Ki(app) for testosterone vs [DM], read-out: dissociation constant for DM in the absence of testosterone, Kc): 1300 µM
